Assay results reported in patent US20040087572A1, “Method for inhibiting cataracts” (priority 2003, published 2004).

Legend:
[1] = tested on: endometrium / uterus; conditions: clinical studies in women; cited from earlier work
[2] = tested on: postmenopausal women (cataracts); experiment: Phase 3 placebo-controlled clinical trial: cataract treatment-emergent signs and symptoms (TESS) events; type: in vivo, human
Experimental: A phase 3, multicenter, double-blind, placebo-controlled, randomized clinical trial was conducted. The trial included 7705 women (mean age 67 years old), who were an average of 19 years postmenopausal. These patients were randomly assigned to the following treatment protocol: raloxifene hydrochloride at 60 mg per day via oral administration, raloxifene at 120 mg per day, or placebo. The study was conducted for a period of 48 months. As a portion of the patient's overall evaluation, various clinical tests and parameters were measured at periodic intervals.
The following tables provide summaries of select cataract treatment-emergent signs and symptoms (“TESS”) events for various patient populations at the thirty-six and the forty-eight month mark of the clinical trial.

[3] = tested on: chloride channels in the lens; conditions: organ culture, clinically relevant concentrations; cited from earlier work
[4] = All Randomized Patients, 36-Month Data, Rlx60 (60 mg per day oral), N = 2557
[5] = All Randomized Patients, 36-Month Data, Rlx120 (120 mg per day), N = 2572
[6] = All Randomized Patients, 48-Month Data, Rlx60 (60 mg per day oral), N = 2557
[7] = All Randomized Patients, 48-Month Data, Rlx120 (120 mg per day), N = 2572
[8] = Patients Not Reporting a Cataract-Related Current Condition at Baseline, 36-Month Data, Rlx60 (60 mg per day oral), N = 2394
[9] = Patients Not Reporting a Cataract-Related Current Condition at Baseline, 36-Month Data, Rlx120 (120 mg per day), N = 2418
[10] = Patients Not Reporting a Cataract-Related Current Condition at Baseline, 48-Month Data, Rlx60 (60 mg per day oral), N = 2385
[11] = Patients Not Reporting a Cataract-Related Current Condition at Baseline, 48-Month Data, Rlx120 (120 mg per day), N = 2408
[12] = Patients Reporting a Cataract-Related Current Condition at Baseline, 36-Month Data, Rlx60 (60 mg per day oral), N = 163
[13] = Patients Reporting a Cataract-Related Current Condition at Baseline, 36-Month Data, Rlx120 (120 mg per day), N = 154
[14] = Patients Reporting a Cataract-Related Current Condition at Baseline, 48-Month Data, Rlx60 (60 mg per day oral), N = 172
[15] = Patients Reporting a Cataract-Related Current Condition at Baseline, 48-Month Data, Rlx120 (120 mg per day), N = 164

Cl.O=C(c1ccc(OCCN2CCCCC2)cc1)c1c(-c2ccc(O)cc2)sc2cc(O)ccc12 [Rlx, [2-(4-hydroxyphenyl)-6-hydroxybenzo[b]thie-3-yl][4-[2-(1-piperidenyl)ethoxy]phenyl]methanone hydrochloride]
Endometrial cancer [1]: has not been associated with endometrial cancer | Endometrial stimulation [1]: not associated with endometrial stimulation | Dose dependence of the trend in cataract events ([2]; 120 mg per day vs 60 mg per day vs placebo): dose dependent | Risk of cataracts (adverse events relating to cataracts) as compared to placebo ([2]; 7705 postmenopausal women, 60 or 120 mg per day, 48 months): trend toward decreasing risk of cataracts | "Cataract Specified" event, number of patients [2, 4]: 92 | "Cataract Specified" event, percent of patients [2, 4]: 3.6% | Any Cataract-related event, number of patients [2, 4]: 105 | Any Cataract-related event, percent of patients [2, 4]: 4.1% | Surgery for cataract, number of patients [2, 4]: 60 | Surgery for cataract, percent of patients [2, 4]: 2.3% | "Cataract Specified" event, number of patients [2, 5]: 82 | "Cataract Specified" event, percent of patients [2, 5]: 3.2% | Any Cataract-related event, number of patients [2, 5]: 101 | Any Cataract-related event, percent of patients [2, 5]: 3.9% | Surgery for cataract, number of patients [2, 5]: 60 | Surgery for cataract, percent of patients [2, 5]: 2.3% | "Cataract Specified" event, number of patients [2, 6]: 135 | "Cataract Specified" event, percent of patients [2, 6]: 5.3% | Any Cataract-related event, number of patients [2, 6]: 151 | Any Cataract-related event, percent of patients [2, 6]: 5.9% | Surgery for cataract, number of patients [2, 6]: 85 | Surgery for cataract, percent of patients [2, 6]: 3.3% | "Cataract Specified" event, number of patients [2, 7]: 122 | "Cataract Specified" event, percent of patients [2, 7]: 4.7% | Any Cataract-related event, number of patients [2, 7]: 140 | Any Cataract-related event, percent of patients [2, 7]: 5.4% | Surgery for cataract, number of patients [2, 7]: 78 | Surgery for cataract, percent of patients [2, 7]: 3.0% | Any Cataract-related event, number of patients [2, 8]: 80 | Any Cataract-related event, percent of patients [2, 8]: 3.3% | Any Cataract-related event, number of patients [2, 9]: 83 | Any Cataract-related event, percent of patients [2, 9]: 3.4% | Any Cataract-related event, number of patients [2, 10]: 120 | Any Cataract-related event, percent of patients [2, 10]: 5.0% | Any Cataract-related event, number of patients [2, 11]: 115 | Any Cataract-related event, percent of patients [2, 11]: 4.8% | Any Cataract-related event, number of patients [2, 12]: 25 | Any Cataract-related event, percent of patients [2, 12]: 15.3% | Any Cataract-related event, number of patients [2, 13]: 18 | Any Cataract-related event, percent of patients [2, 13]: 11.7% | Any Cataract-related event, number of patients [2, 14]: 31 | Any Cataract-related event, percent of patients [2, 14]: 18.0% | Any Cataract-related event, number of patients [2, 15]: 25 | Any Cataract-related event, percent of patients [2, 15]: 15.2%

CC/C(=C(\c1ccccc1)c1ccc(OCCN(C)C)cc1)c1ccccc1 [tamoxifen]
Effect on chloride channels [3]: blocked chloride channels
